Test results: US20080145358A1, “Method for Determining Responsiveness to Chk1 Inhibitors” (ASTRAZENECA AB, priority 2005, published 2008)

How the values were obtained:
phospho-CHK [1] = experiment: Western blot of phospho-CHK after DNA damaging agents in SW620 and or HT29 cells; format: cell-based; details: titration of DNA damaging agent, 8 hour incubation
Procedure: Cell were then treated with a titration of DNA damaging agents (SN-38 (CQ International, China), doxorubicin (Sigma-Aldrich, MO) or gemcitabine (CQ International, China)). Cells were then harvested after an 8 hour incubation with DNA damaging agents in Onyx lysis buffer with protease and phosphatase inhibitors (20 mM Tris, 137 mM Na Cl, […], 1% Triton X, 10% glycerol, 1.5 mM MgCl2, 1:100 dilution of Calbiochem Phophatase Inhibitor Cocktail set II, 10 mM β-glycerophosphate, 1 mM DTT, 7 μg/ml PMSF, 20KIU/ml aprotinin, 1 mM Pefabloc, 0.1 mg/ml leupeptin). Protein lysates were then generated, protein concentration determined and equal protein loaded and analyzed by Western blot analysis using a 1:100 dilution of phospho-CHK rabbit monoclonal antibody (Ser 345) (133D3) acquired from Cell Signaling (Beverly, Mass.). […] To further characterize the CHK1 activation, SW620 and HT29 cells were treated with gemcitabine (100 nM) or SN38 (100 nM) and cells harvested at different times (from 30 minutes to 24 hours). […] A panel of tumor cell lines was then examined to determine how broadly in tumor cells CHK was activated and whether p53 status impacted CHK activation. The panel of cell lines were plated and treated for 8 hours with 100 nM of gemcitabine. Cell lysates were harvested and evaluated for phospho-CHK upregulation.

phospho-CHK [2] = experiment: Western blot of phospho-CHK in H460 (dominant negative p53) xenograft tumors; format: in vivo, nude rats; details: 20 mg/kg IV
Procedure: 1×10^7 H460 cells expressing dominant negative p53 were injected into the right flank of male nude rats which had been irradiated with 5 Gy radiation 6 days prior to implantation. At day 20 when the tumors reached a size of […], animals were dosed IV with 20 mg/kg gemcitabine in 0.9% saline. Tumors were then harvested at varying time points including 1.5, 2, 2.5, 4, 6, 8 and 24 hours following gemcitabine dosing.

phosphorylated CHK1 = experiment: Phosphorylated CHK1 staining (H-score) of hair follicles in skin biopsies; format: in vivo, nude mice; details: gemcitabine 30 or 60 mg/kg IV alone or Chk inhibitor 5, 20 or 40 mg/kg IV alone, seven hours
Text: Staining was specific to cell nuclei. […] Sections were then quantitated by H-score analysis.

phospho-CHK [3] = experiment: Western blot of phospho-CHK in a panel of tumor cell lines; format: cell-based; details: 100 nM, 8 hours
Procedure: Cell were then treated with a titration of DNA damaging agents (SN-38 (CQ International, China), doxorubicin (Sigma-Aldrich, MO) or gemcitabine (CQ International, China)). […] Protein lysates were then generated, protein concentration determined and equal protein loaded and analyzed by Western blot analysis using a 1:100 dilution of phospho-CHK rabbit monoclonal antibody ([MUT]) (133D3) acquired from Cell Signaling (Beverly, Mass.). […] A panel of tumor cell lines was then examined to determine how broadly in tumor cells CHK was activated and whether p53 status impacted CHK activation. The panel of cell lines were plated and treated for 8 hours with 100 nM of gemcitabine. Cell lysates were harvested and evaluated for phospho-CHK upregulation.

phospho-H2AX = experiment: Western blot of phospho-H2AX in SW620 and or A549 cells; format: cell-based; details: 5 hour incubation, either compound used alone
Procedure: Cells were then harvested after a 5 hour incubation directly into SDS sample buffer (NuPAGE #NP007). Samples were then sonicated, passed through a 21 gauge needle, heated to 100° C. for 5 minutes, microcentrifuged and analyzed by Western blot analysis. Protein lysates were then generated, protein concentration determined and equal protein loaded and analyzed by Western blot analysis using a 1:5000 dilution of a mouse monoclonal anti-phospho H2AX […] (Upstate, N.Y.).

phospho-CHK [4] = experiment: Western blot of phospho-CHK in SW620 cells, gemcitabine and CHK inhibitor combination; format: cell-based; details: 8 hours, 100 nM gemcitabine alone or 30, 100 or 500 nM CHK inhibitor alone
Procedure: Cell were then treated with 100 nM gemcitabine or 30 nM, 100 nM or 500 nM CHK inhibitor or a combination of 100 nM gemcitabine and 30 nM, 100 nM or 500 nM for 8 hours. One set of cells were then harvested for Western blot analysis. Media containing compounds were removed from the remaining cells and fresh tissue culture media added back.

phospho-CHK [5] = experiment: Phospho-CHK immunohistochemistry (IHC) in HeLa or A549 cells, Metamorph quantitation; format: cell-based; details: 100 nM gemcitabine, 5 hours, FIG. 1
Procedure: Phospho-CHK regulation was also examined by immunohistochemistry (IHC). […] Cells were fixed with 4% PFA in PBS (8 minutes room temperature), permeabilized with 0.5% Triton-X in PBS, washed with PBS and washed with 0.05% Tween 20 in PBS. Cells were then blocked with 10% Goat serum for 1 hour at room temperature, incubated with 1:50 dilution of phospho-CHK rabbit monoclonal antibody ([MUT]) (133D3) acquired from Cell Signaling (Beverly, Mass.) in 10% goat serum for 90 minutes, washed twice with PBS and once with 05% Tween 20 in PBS. […] Phospho-CHK staining was then quantitated using Metamorph analysis (Universal Imaging Corp, Dowington, Pa.).

Row | Compound | phospho-CHK level by Western blot (phospho-CHK [1]) | time of maximum activation of CHK in tumor (phospho-CHK [2]) | time to activation of CHK in tumor (phospho-CHK [2]) | phospho-CHK in tumor at 24 hours (phospho-CHK [2]; 24 hours after dosing) | phosphorylated CHK1 staining of hair follicles, single agent (phosphorylated CHK1) | phospho-CHK level by Western blot (phospho-CHK [3]) | phospho-H2AX by Western blot, compound alone (phospho-H2AX) | phospho-CHK level by Western blot, single agent (phospho-CHK [4]) | area of phospho-CHK signal relative to nuclear area (phospho-CHK [5])
1 | COc1cccc2c1C(=O)c1c(O)c3c(c(O)c1C2=O)C[C@@](O)(C(=O)CO)C[C@@H]3O[C@H]1C[C@H](N)[C@H](O)[C@H](C)O1 [doxorubicin] | dose dependent up-regulation |  |  |  |  |  |  |  | 
2 | Nc1ccn([C@@H]2O[C@H](CO)[C@@H](O)C2(F)F)c(=O)n1 [gemcitabine] | dose dependent up-regulation | 8 h | ≤ 2 h | significantly down-regulated | No staining | upregulated in a panel of tumor cell lines, albeit to different levels | no change or a very modest change | increase in phospho-CHK | large increase
3 | CCc1c2c(nc3ccc(O)cc13)-c1cc3c(c(=O)n1C2)COC(=O)[C@]3(O)CC [SN-38] | dose dependent up-regulation |  |  |  |  |  |  |  | 
